ChEMBL document CHEMBL4622885, “Rational design, synthesis and biological evaluation of novel multitargeting anti-AD iron chelators with potent MAO-B inhibitory and antioxidant activity” (Bioorg Med Chem, 2020)

Tests used:
[1] = Metal chelating activity assessed as Fe3+ complex formation by measuring stability constant for FeI in using pre Fe+3 complexed compound (FeCl3) in 0.1 M KCl :DMSO solution UV-pH titration based spectrophotometric analysis
[2] = Dissociation constant, pKa2 of compound for dissociation of the 3-hydroxyl group in 0.1 M KCl incubated for 1 min by UV-pH titration based spectrophotometric analysis; type: physicochemical
[3] = Metal chelating activity assessed as iron chelation
[4] = molecular target: T1, Amine oxidase [flavin-containing] B (Homo sapiens, UniProt P27338); assay: Inhibition of human recombinant MAO-B expressed in baculovirus infected BTI insect cells using kynuramine as substrate incubated for 10 mins followed by substrate addition by fluorimetric analysis
T1 sequence (P27338 whole entry): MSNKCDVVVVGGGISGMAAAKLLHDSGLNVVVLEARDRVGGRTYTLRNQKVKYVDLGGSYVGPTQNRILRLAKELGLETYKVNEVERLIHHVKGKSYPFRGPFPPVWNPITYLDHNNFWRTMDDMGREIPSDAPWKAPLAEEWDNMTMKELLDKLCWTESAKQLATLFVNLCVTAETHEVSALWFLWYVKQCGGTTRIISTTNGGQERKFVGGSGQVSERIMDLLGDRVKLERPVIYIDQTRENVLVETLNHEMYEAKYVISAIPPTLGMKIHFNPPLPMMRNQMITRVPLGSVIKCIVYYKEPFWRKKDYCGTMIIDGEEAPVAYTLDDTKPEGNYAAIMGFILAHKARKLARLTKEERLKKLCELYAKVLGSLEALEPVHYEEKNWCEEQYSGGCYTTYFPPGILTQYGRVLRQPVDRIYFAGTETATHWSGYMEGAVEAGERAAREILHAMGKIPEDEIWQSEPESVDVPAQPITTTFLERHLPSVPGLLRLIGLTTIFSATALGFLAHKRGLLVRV

[5] = Metal chelating activity assessed as Fe3+ complex formation by measuring stability constant for Fe(I)3 in using pre Fe+3 complexed compound (FeCl3) in 0.1 M KCl :DMSO solution UV-pH titration based spectrophotometric analysis
[6] = Dissociation constant, pKa1 of compound for protonation of the 4-oxo group in 0.1 M KCl incubated for 1 min by UV-pH titration based spectrophotometric analysis; type: physicochemical
[7] = Metal chelating activity assessed as Fe3+ complex formation by measuring stability constant for Fe(I)2 in using pre Fe+3 complexed compound (FeCl3) in 0.1 M KCl :DMSO solution UV-pH titration based spectrophotometric analysis
[8] = molecular target: T1, Amine oxidase [flavin-containing] B; assay: Inhibition of human recombinant MAO-B expressed in baculovirus infected BTI insect cells using kynuramine as substrate at 100 nM incubated for 10 mins followed by substrate addition by fluorimetric analysis relative to control

| SMILES | log(activity) [1] | pKa at 1 min [2] | pFe3+ [3] | IC50 [4] | log(activity) [5] | pKa at 1 min [6] | log(activity) [7] | inhibition at 0.1 µM [8] |
| --- | --- | --- | --- | --- | --- | --- | --- | --- |
| Cc1c(O)c(=O)ccn1CCNC(=O)c1cc2ccc(OCc3ccccc3[N+](=O)[O-])cc2oc1=O | 15.1 | 9.74 | 18.2 | 98.6 nM | 34.6 | 3.24 | 25.9 | 50.6% |
| Cc1c(O)c(=O)ccn1CCNC(=O)c1cc2cc(O)ccc2oc1=O | 15.1 | 10.1 | 17.2 | 188 nM | 34.1 | 3.33 | 26.5 | 46.4% |
| COc1ccc2cc(C(=O)NCCn3cc(O)c(=O)cc3C)c(=O)oc2c1 | 13.9 | 9.07 | 18.5 |  | 33 | 3.34 | 24.5 | 35.5% |
| Cc1c(O)c(=O)ccn1CCNC(=O)c1cc2ccc(OCc3cccc(Cl)c3)cc2oc1=O | 14.4 | 9.56 | 18.6 | 136 nM | 34.5 | 3.26 | 24.9 | 47.4% |
| C#CCOc1ccc2cc(C(=O)NCCn3ccc(=O)c(O)c3C)c(=O)oc2c1 | 14.2 | 9.68 | 17.9 | 143 nM | 34.1 | 3.32 | 25.5 | 20.7% |
| O=C(NCCn1ccc(=O)c(O)c1)c1cc2ccccc2oc1=O | 12.9 | 8.74 | 18.2 | 195 nM | 31.8 | 3 | 23.4 | 46.1% |
| Cc1c(O)c(=O)ccn1C [DEFERIPRONE] | 14.4 to 15.1 | 9.78 to 9.84 | 20.7 |  | 34.2 to 37.4 | 3.61 to 3.67 | 25.7 to 27.4 |  |
| Cc1c(O)c(=O)ccn1CCNC(=O)c1cc2ccc(OCc3ccc(C(C)(C)C)cc3)cc2oc1=O | 14.8 | 9.73 | 20.2 | 122 nM | 36.6 | 3.17 | 26.1 | 45.3% |
| Cc1c(O)c(=O)ccn1CCNC(=O)c1cc2ccc(OCC3CCCCC3)cc2oc1=O | 14.3 | 9.76 | 18.1 |  | 34.7 | 3.29 | 25.1 | 44.6% |
| Cc1c(O)c(=O)ccn1CCNC(=O)c1cc2ccc(OCc3ccc(C(F)(F)F)cc3)cc2oc1=O | 14 | 9.83 | 18.1 | 119 nM | 34.9 | 3.37 | 25.1 | 47.4% |
| COc1ccc2cc(C(=O)NCCn3ccc(=O)c(O)c3)c(=O)oc2c1 | 12.9 | 8.74 | 18.3 |  | 31.9 | 3.07 | 23.4 | 31.3% |
| Cc1c(O)c(=O)ccn1CCNC(=O)c1cc2ccc(OCc3cc(F)cc(F)c3)cc2oc1=O | 14.3 | 9.78 | 16.9 | 125 nM | 33.5 | 3.25 | 25 | 47.4% |
| CCOc1ccc2cc(C(=O)NCCn3ccc(=O)c(O)c3C)c(=O)oc2c1 | 14.2 | 9.75 | 18.2 | 108 nM | 34.7 | 3.3 | 25.6 | 46.2% |
| Cc1cccc(COc2ccc3cc(C(=O)NCCn4ccc(=O)c(O)c4C)c(=O)oc3c2)c1 | 14.2 | 9.72 | 18.8 | 144 nM | 35.2 | 3.27 | 24.4 | 44.6% |
| COc1ccc2oc(=O)c(C(=O)NCCn3ccc(=O)c(O)c3C)cc2c1 | 14.2 | 9.58 | 17.1 |  | 32.8 | 3.27 | 25.3 | 38.5% |
